Reference: patent EP0723577B1, “DETERGENT COMPOSITIONS CONTAINING SILVER ANTI-TARNISHING AGENTS” (UNILEVER N.V., priority 1993, dated 1995)
Blank lines part the entries; values can stand above or below the compound they belong to.

Legend:
physchem = format: physicochemical
Experimental: As used herein, the term "pKa" means a pH value at which 50% of the heterocyclic ring moieties of the compound (particularly the five-membered rings in the case of the purine class compounds) are in ionic form.
The pH of this solution was adjusted to 3.0 with H2SO4. The solution was then titrated with 1N NaOH to pH 11.0. A plot of mls. NaOH vs. pH for each sample was prepared. The pKa of the compound is that point where the maximum change in pH as a function of mls. NaOH is observed.

[1] = Silver plates held in the compositions for 25 minutes, evaluated for tarnishing; conditions: for Effective Silver Anti-Tarnishing: 4 wt.% epsilon-phthalimido peroxyhexanoic acid
Experimental: (§1) A comparison of anti-tarnishing performance of purine class compounds within the scope of the invention and azole compounds outside the invention was conducted. The selected compounds were incorporated in an amount of 1 wt.% in a machine dishwashing composition containing 4 wt.% epsilon-phthalimido peroxyhexanoic acid as the bleaching agent. The pH values of the compositions were adjusted by the addition of a 50% solution of sodium hydroxide or concentrated sulfuric acid, as necessary.
(§2) Copper plates and silver plates were held in each of the compositions for 25 minutes, removed, rinsed with deionized water and evaluated for tarnishing. […]
as §1, with “1,3-N azole” for “purine class”
as §2

[2] = Tarnish-monitoring experiments in a dishwasher, monitors visually ranked 0 to 6 against the Example 1 reference scale; conditions: general description, compositions containing the compound
Experimental: The wash program consisted of a pre-wash at 40°C, a mainwash at 55°C, two intermediate rinses, and a final rinse at 65°C.
The mainwash pH with these compositions was typically 8.7. Silver-plated spoons (2 per run) were the monitors used in the test. The spoons were supplied by Oneida Silversmiths, USA. The monitors were washed in a commercially available hand dishwash liquid and rinsed with deionized water and acetone before use. In the dishwasher the monitors were kept apart from each other in the cutlery basket. At the end of a single-run machine program, the monitors were visually analyzed for the presence of colours and the loss of gloss.
This ranking of spoons was used as a reference scale for all subsequent Examples.

[3] = Example 5: 1 wt.% compound, pH of composition 8.5
[4] = Example 5: 1 wt.% compound, pH of composition 11.0
[5] = Example 13: 1 wt.% compound, pH of composition 8.5
[6] = Example 13: 1 wt.% compound, pH of composition 11.0
[7] = Example 5: 1 wt.% compound, pH of composition 8.6
[8] = Example 13, Tables 20 and 21, read-out: pKa of compounds
[9] = Example 13: 1 wt.% compound, pH of composition 8.6

Structure (SMILES): Nc1nc[nH]n1 [3-amino-1,2,4-triazole]
pKa (physchem): 7.3
Effective Silver Anti-Tarnishing ([1]; Example 13: 1 wt.% compound, pH of composition 8.3): Yes (A tarnish score of 3 or less was considered effective as a silver anti-tarnishing compound)

pKa (physchem): 6.8
Structure (SMILES): O=[N+]([O-])c1ccc2cn[nH]c2c1 [6-Nitroindazole, reference compound]
Effective Silver Anti-Tarnishing [1, 3]: No (A tarnish score of 3 or less was considered effective as a silver anti-tarnishing compound)
Effective Silver Anti-Tarnishing [1, 4]: No (A tarnish score of 3 or less was considered effective as a silver anti-tarnishing compound)
Effective Silver Anti-Tarnishing [1, 5]: No (A tarnish score of 3 or less was considered effective as a silver anti-tarnishing compound)
Effective Silver Anti-Tarnishing [1, 6]: No (A tarnish score of 3 or less was considered effective as a silver anti-tarnishing compound)

pKa (physchem): 7
Structure (SMILES): O=c1[nH]c(=O)c2[nH]cnc2[nH]1 [Xanthine]
Effective Silver Anti-Tarnishing [1, 7]: Yes (A tarnish score of 3 or less was considered effective as a silver anti-tarnishing compound)

Structure (SMILES): Nc1nn[nH]n1 [4-amino-1,2,3,5-tetrazole]
pKa (physchem): 8.1
effectiveness as a silver anti-tarnishing agent, in words ([1]; Example 13, pH of 8.8): not effective
Effective Silver Anti-Tarnishing ([1]; Example 13: 1 wt.% compound, pH of composition 8.8): No (A tarnish score of 3 or less was considered effective as a silver anti-tarnishing compound)

pKa (physchem): 7.2
Structure (SMILES): Nc1ncnc2nc[nH]c12 [Adenine]
prevention of silver tarnishing, in words ([1]; Example 5, pH 6.9): did not prevent tarnishing
prevention of silver tarnishing, in words ([1]; Example 5, pH 8.6): prevented silver tarnishing
Effective Silver Anti-Tarnishing ([1]; Example 5: 1 wt.% compound, pH of composition 6.9): No (A tarnish score of 3 or less was considered effective as a silver anti-tarnishing compound)
Effective Silver Anti-Tarnishing [1, 7]: Yes (A tarnish score of 3 or less was considered effective as a silver anti-tarnishing compound)

Structure (SMILES): c1nnn[nH]1 [1,2,3,5-Tetrazole]
pKa (physchem; [8]): 8.4
pH of compositions in which the compound is effective ([1]; Example 13): greater than 9.4
effectiveness as a silver anti-tarnishing agent, in words ([1]; Example 13, pH of 8.5): not effective
effectiveness as a silver anti-tarnishing agent, in words ([1]; Example 13, pH of 9.5 and greater): effective
Effective Silver Anti-Tarnishing [1, 5]: No (A tarnish score of 3 or less was considered effective as a silver anti-tarnishing compound)
Effective Silver Anti-Tarnishing ([1]; Example 13: 1 wt.% compound, pH of composition 9.5): Yes (A tarnish score of 3 or less was considered effective as a silver anti-tarnishing compound)
Effective Silver Anti-Tarnishing ([1]; Example 13: 1 wt.% compound, pH of composition 10.5): Yes (A tarnish score of 3 or less was considered effective as a silver anti-tarnishing compound)
Effective Silver Anti-Tarnishing [1, 6]: Yes (A tarnish score of 3 or less was considered effective as a silver anti-tarnishing compound)

pKa (physchem): 6.7
Structure (SMILES): Nc1nc2nc[nH]c2c(=O)[nH]1 [Guanine]
prevention of silver tarnishing, in words ([1]; Example 5, pH 7.0): did not prevent tarnishing
prevention of silver tarnishing, in words ([1]; Example 5, pH 8.6): prevented silver tarnishing
Effective Silver Anti-Tarnishing ([1]; Example 5: 1 wt.% compound, pH of composition 7.0): No (A tarnish score of 3 or less was considered effective as a silver anti-tarnishing compound)
Effective Silver Anti-Tarnishing [1, 7]: Yes (A tarnish score of 3 or less was considered effective as a silver anti-tarnishing compound)

pKa (physchem; pKa of compounds): 6
Structure (SMILES): O=c1[nH]cnc2nc[nH]c12 [Hypoxanthine]
Effective Silver Anti-Tarnishing [1, 7]: Yes (A tarnish score of 3 or less was considered effective as a silver anti-tarnishing compound)

pKa (physchem): 4.6
Structure (SMILES): O=c1[nH]c(=O)c2[nH]c(=O)[nH]c2[nH]1 [Uric Acid]
Effective Silver Anti-Tarnishing [1, 7]: Yes (A tarnish score of 3 or less was considered effective as a silver anti-tarnishing compound)

Structure (SMILES): c1c[nH]cn1 [Imidazole]
pKa (physchem; [8]): 6.9
Effective Silver Anti-Tarnishing [1, 9]: Yes (A tarnish score of 3 or less was considered effective as a silver anti-tarnishing compound)

Structure (SMILES): c1cncnc1 [pyrimidine, reference compound]
prevention of heavy tarnishing of silver and silver-plated articles, in words [2]: substantially ineffective

pKa (physchem): 6.1
Structure (SMILES): Oc1ncnc2[nH]ncc12 [Allopurinol]
Effective Silver Anti-Tarnishing [1, 7]: Yes (A tarnish score of 3 or less was considered effective as a silver anti-tarnishing compound)

Structure (SMILES): c1cc[nH]c1 [Pyrrole, reference compound]
prevention of heavy tarnishing of silver and silver-plated articles, in words [2]: substantially ineffective
Effective Silver Anti-Tarnishing [1, 7]: No (A tarnish score of 3 or less was considered effective as a silver anti-tarnishing compound)
Effective Silver Anti-Tarnishing [1, 9]: No (A tarnish score of 3 or less was considered effective as a silver anti-tarnishing compound)

Structure (SMILES): c1ccc2[nH]ncc2c1 [indazole, reference compound]
prevention of heavy tarnishing of silver and silver-plated articles, in words [2]: substantially ineffective

Structure (SMILES): c1ccc(-c2ncc[nH]2)cc1 [2-Phenylimidazole, reference compound]
pKa (physchem): 8.8
Effective Silver Anti-Tarnishing [1, 3]: No (A tarnish score of 3 or less was considered effective as a silver anti-tarnishing compound)
Effective Silver Anti-Tarnishing [1, 4]: No (A tarnish score of 3 or less was considered effective as a silver anti-tarnishing compound)
prevention of silver tarnishing, in words ([1]; Example 13, pH 11.0): did not prevent silver tarnishing
Effective Silver Anti-Tarnishing [1, 5]: No (A tarnish score of 3 or less was considered effective as a silver anti-tarnishing compound)
Effective Silver Anti-Tarnishing [1, 6]: No (A tarnish score of 3 or less was considered effective as a silver anti-tarnishing compound)

Structure (SMILES): N[C@@H](Cc1c[nH]cn1)C(=O)O [Histidine]
Effective Silver Anti-Tarnishing [1, 9]: Yes (A tarnish score of 3 or less was considered effective as a silver anti-tarnishing compound)

Structure (SMILES): N=C(N)NCCC[C@H](N)C(=O)O [Arginine, reference compound]
pKa (physchem): 9.1
pKa of compounds (physchem): 9.1
Effective Silver Anti-Tarnishing [1, 7]: No (A tarnish score of 3 or less was considered effective as a silver anti-tarnishing compound)
Effective Silver Anti-Tarnishing [1, 9]: No (A tarnish score of 3 or less was considered effective as a silver anti-tarnishing compound)

pKa (physchem): 11.5
Structure (SMILES): c1cn[nH]c1 [Pyrazole, reference compound]
prevention of heavy tarnishing of silver and silver-plated articles, in words [2]: substantially ineffective
Effective Silver Anti-Tarnishing [1, 7]: No (A tarnish score of 3 or less was considered effective as a silver anti-tarnishing compound)
Effective Silver Anti-Tarnishing [1, 9]: No (A tarnish score of 3 or less was considered effective as a silver anti-tarnishing compound)

Structure (SMILES): c1ccc2[nH]cnc2c1 [Benzimidazole]
pKa of compounds (physchem): 5.5
Effective Silver Anti-Tarnishing [1, 9]: Yes (A tarnish score of 3 or less was considered effective as a silver anti-tarnishing compound)
